Source: patent US9682062B2, “Pharmaceutical compositions and method for inhibiting angiogenesis” (Industrial Technology Research Institute, priority 2012, dated 2017)

Assays:
[1] = test system: human umbilical vein endothelial cells (HUVEC); experiment: Inhibition of HUVEC net structure (tube) formation on ECM/Matrigel; format: cell-based; conditions: group without drug = 100%, read-out: 50% inhibiting concentration (IC50) for inhibiting tube formation
Method: The lyophilized powder was dissolved in an appropriate solvent and an in vitro anti-angiogenesis was performed thereto. The ability of the extract for inhibiting net structure formation of human umbilical vein endothelial cells (HUVEC) in extracellular matrix (ECM) or growth factor reduced Matrigel was analyzed, and the forming level of the tube structure thereof was integrated to be used as an indicator for quantification.
Furthermore, by using Matrigel (BD, Cat. No. 356231) as a matrix and observing the state of human umbilical vein endothelial cells (HUVECs) constructing a net structure on the matrix, state of JC-5 (yatein) inhibiting the formation of HUVEC net structure was analyzed. […] The total length of the net structure was calculated through NIS element image analysis software (Nikon; Agent: Lin Trading Co., Ltd. Taiwan), wherein by using the total length of a net structure formed from a group without a drug addition as 100%, the state of JC-5 inhibiting the formation of HUVEC net structure was analyzed.
By using Matrigel (BD, Cat. No. 356231) as a matrix and observing the state of human umbilical vein endothelial cells (HUVECs) constructing a net structure on the matrix, the states of the crude extract (CBT-143-S) and the fractional extract (CBT-143-S-F6F7) inhibiting the formation of HUVEC net structure were analyzed. […]

[2] = test system: laser-induced CNV; experiment: Laser-induced choroidal neovascularization (CNV) assay; format: in vivo, brown Norway rats; conditions: 1 μg/2 ul in DMSO per eye, fluorescein angiography
Text: Male rats (brown Norway rats, purchased from BioLASCO Co., Taiwan) were used. CNV lesions were induced in rat eyes by laser photocoagulation. Briefly, after the rats were anesthetized, their pupils were dilated with 1% tropicamide. A piece of 18×24 mm^2 standard cover glass served as a contact lens for application of photocoagulation. Argon laser irradiation was delivered through a slit lamp. Laser parameters were set as follows: spot size of 50 μm; power of 120 mW; and exposure duration of 0.1 second. An attempt was made to break Bruch's membrane, as clinically evidenced by central bubble formation, with or without intraretinal or choroidal hemorrhage. Four to six lesions were created between the major retinal vessels in each fundus. One day prior to laser treatment, animals received bilateral intravitreal injection of 2 ul JC-5 (1 ug/eye, N=6) or 2 ul vehicle (DMSO, N=6). Fourteen days later, a self-retaining eye speculum was placed in the eye to facilitate administration. […] Rats were analyzed under general anesthesia after dilation of the pupil and subsequent intraperitoneal injection of 0.5 ml of 2.5% fluorescein sodium (Alcon, […], Germany). […] For quantitative analysis of fluorescein leakage, the area of fluorescein leakage, determined as area of hyperfluorescence in which no normal retinal blood vessels were observed, was measured for each burn using ImageJ software (NIH, USA).

[3] = test system: bFGF-induced corneal neovascularization; experiment: Rat corneal neovascularization (corneal pocket) assay; format: in vivo, Sprague Dawley rats; conditions: pellet with 60 ng of bFGF plus 1 ug JC-5, day 7
Method: Pellets made of the hydron polymer (polyHEME) and a test drug or DMSO were implanted on the corneal surface of rats, and vascular formation thereof was observed.
A hydron polymer (polyHEME) was dissolved in absolute ethanol (12% w/v) in a rotator at 37° C. overnight, and then stored at room temperature before pellet making. Each pellet for the corneal pocket assay contained 60 ng of bFGF, or 1 ug JC-5 and 20 ug of sucralfate in 3 uL of casting gel, which was constituted as a 50:50 (vol/vol) mixture of hydron gel and factor-sucralfate-PBS. The casting gel was promptly pipetted onto an autoclaved, sterilized 20×20-mm piece of nylon mesh with an approximate pore size of 2×2 mm. The pellets were prepared the day before corneal surgery in a laminar flow hood under sterile conditions. Subsequently, the fibers of the mesh were pulled apart, and uniformly sized pellets of 2×2×0.4 mm^3 were selected for implantation. All procedures were performed in sterile conditions. Such pellets can be stored frozen at −20° C. for several days without loss of bioactivity. […] The eyes were exposed, and the maximum vessel length (VL) of the neovascularization zone, extending from the base of the limbal vascular plexus toward the pellet, was measured. […] The contiguous circumferential zone of neovascularization (CN) was measured in clock hours with a 360° reticule (where 30° of arc equals 1 clock hour).

[4] = test system: growth factor (FGFb+VEGF)-induced angiogenesis; experiment: Matrigel plugs assay, in vivo growth factor-induced angiogenesis; set-up: species or system BALB/c mice; conditions: orally administered every day 30 mg/kg/day, 14 days
[5] = test system: PBMCs; experiment: Toxicity test for normal cells, PBMCs (Alamarblue cell viability assay); format: cell-based; conditions: PBMC, 72 hours incubation, read-out: IC50 of a test drug for PBMCs
Method: In order to investigate whether the inhibiting effects mentioned above of the crude extract (CBT-143-S) and the fractional extract (CBT-143-S-F6F7) are due to the toxicity thereof or not, cell viability assay for normal cells, PBMCs, and growth inhibition assays for HUVECs were performed to the crude extract (CBT-143-S) and the fractional extract (CBT-143-S-F6F7), and a commercial clinical drug, sorafenib, were used for comparison as a reference.
Alamarblue is a plant dye that is usually blue. The dye decomposes during cell proliferation and reduces from blue to pink, and a rise in O.D. at 570 nm can be determined. Conversely, the more dead cells there are, the lower the O.D. value is determined to be.
PBMC cells (1×10^5 cells/well) were inoculated in a 96-well plate, and the crude extract (CBT-143-S) and the fractional extract (CBT-143-S-F6F7) samples, etc. with different concentrations (300, 100, 30, 10, 3 and 1 μg/mL) were added to the plate. After incubating for 72 hours, Alamarblue was added to the plate and incubated at 37° C. for 24 hours, and then the O.D. at 570 nm/600 nm thereof was determined by an ELISA reader. After that, the obtained O.D. values were substituted into the formal calculation as follows: […]

[6] = test system: Hep-3B conditional medium (CM)-induced angiogenesis; experiment: Matrigel plugs assay, in vivo Hep-3B conditional medium-induced angiogenesis; set-up: species or system BALB/c mice; conditions: orally administered every day 30 mg/kg/day, 14 days
Method: Through a subcutaneous injection to BALB/c mice to form Matrigel plugs, an evaluation was made of whether a test substance was capable of inhibiting angiogenesis induced by vascular endothelial growth factor or Hep-3B conditional medium (CM).
Matrigel is extracted from the Engelbreth-Holm-Swarm (EHS) mouse sarcoma and contains rich extracellular matrix proteins and contains various factors need by vascular growth. In a condition of room temperature and 37° C., Matrigel is capable of polymerize as a solid gel from, and can provide a better growth environment for vascular endothelial cells.
Matrigel and vascular endothelial growth factors (FGFb+VEGF) or Hep-3B conditional medium (CM) were mixed, and then a test substance was added thereto and mixed. […]
(c) Hemoglobin content in Matrigel was quantified by a QuantiChrom™ Hemoglobin Assay Kit (DIHB-250) to evaluate the amount of neo-blood vessels in Matrigel.
After subcutaneous injection to BALB/c mice for 14 days, the Matrigel plugs in the subcutaneous tissue of the mouse was taken out and equal amount of dispase was added therein to form a mixture and reacted at 37° C. for 16 hours to dissolve intercellular substance gel. […] After the supernatant was reacted with the reagent for 5 minutes, the optical density (O.D.) at 400 nm therefrom was determined. […]

COc1cc(C[C@H]2C(=O)OC[C@@H]2Cc2ccc3c(c2)OCO3)cc(OC)c1OC [JC-5, yatein]
IC50 [1]: 335 nM | CNV lesions areas compared to DMSO-treated vehicles ([2]; intravitreal, day 7 and day 14): significantly decreased | fluorescent dye uptake and extent of CNV [2]: less | neovascular response in implanted cornea [3]: inhibited

CNC(=O)c1cc(Oc2ccc(NC(=O)Nc3ccc(Cl)c(C(F)(F)F)c3)cc2)ccn1 [Sorafenib, sorafenib]
hemoglobin concentration of the Matrigel plug [4]: 27.09 ± 5.88 mg/dL | IC50 [5]: 10.8 ± 0.95 µM | hemoglobin concentration of the Matrigel plug [6]: 25.05 ± 17.59 mg/dL
